The text below walks through data of patent US5340800A, “Peptide medicaments for the treatment of disease” (priority 1992, dated 1994).

Like-named read-outs stand apart in the source and are kept apart here. No end group written: not given here.

Experiment [1] deals with polymorphonuclear leukocyte adhesion to TNF activated endothelial cells. The experiment is classed as cell-based, human. Conditions: for Average % Change of PMN Adhesion to TNF Activated ECs: average over PMN donors (# donors in parentheses). The protocol:
Leukocyte adherence can be measured using several assays known in the art, and the preferred assay is described by Charo, et al., 1985, Blood, 65:473. Briefly, the assay consists of labelling leukocytes with an appropriate label, incubating them with endothelial cells and determining the number of leukocytes that adhere. Preferably the cells are labelled with a gamma ray emitting isotope and the preferred labels are ^111 Indium-oxide or ^51 chromium.
Leukocytes may be isolated from human donors using standard techniques. This generally consists of isolating blood in a physiologically balanced salt solution containing an appropriate anticoagulant, and separating the leukocytes by an appropriate separation step, preferably on Ficoll-Hypaquegradients. Contaminating erythrocytes can be removed by hypotonic lysis. The resulting leukocytes are suspended in a physiologically buffered solution, pH 7.4. The preferred physiological buffered solution is Hank's balanced salt solution that is calcium and magnesium free.
The isolated leukocytes can then be labelled by incubating them for an appropriate time, generally 15 minutes, with the desired radioisotope at a predetermined concentration. The radiolabelled cells are washed to remove unincorporated label, and then suspended in an appropriate solution to perform the adhesion assay described below.
Endothelial cells can be prepared from a number of sources and by several techniques known in the art. Preferably they are obtained from human umbilical veins using the procedure of Charo et al., above. Generally, endothelial cells are isolated by enzymatic digestion of the umbilical veins using, preferably, collagenase as described by Jaffe, E. A., et al., 1973, J. of Clin. Invest, 52:2745. The cells are grown on an appropriate tissue culture substratum, preferably gelatine-coated surfaces.
The endothelial cells may be grown in a variety of tissue culture media containing appropriate supplements such as an appropriate concentration of fetal calf serum, and other supplements/additives routinely utilized by those skilled in this art that are recognized as being favorable for endothelial cells. The endothelial cells may be passaged with a dilute solution of an appropriate protease, and if desired a metal ion chelator. Preferably a solution consisting of 0.05 to 0.25% trypsin and 0.02% EDTA is used. To ensure that the cells are indeed endothelial cells, they are tested by immunofluorescence for Factor VIII antigen, a known endothelial cell marker.
Leukocyte adherence to endothelial cell monolayers may be determined as follows. Early passage endothelial cells, generally not beyond the fifth passage, are cultured on an appropriate substratum and in a suitable cell culture medium. The culture substratum is preferably pre-coated with an appropriate substance that enhances the adherence of the endothelial cells. Several such substances are known including fibronectin, poly-L-lysine, gelatin and laminin. Fibronectin is preferred. An appropriate culture substratum is a 96 well micro titer plate, and a suitable medium is Medium 199 containing fetal calf serum and other supplements known to be beneficial for the growth and maintenance of endothelial cells that are well known to those skilled in the art. Prior to adding a predetermined number of labelled leukocytes, the endothelial cell monolayer is washed with a physiologically balanced salt solution containing a reduced amount of fetal calf serum, preferably 1%. The preferred solution is RPMI supplemented with 1% fetal calf serum.
The endothelial cell monolayer containing added leukocytes is incubated for a time sufficient to permit maximum adherence of the leukocytes, and preferably this is conducted at 37° C. for 30 minutes in an appropriate cell culture atmosphere. Generally this would consist of growing and incubating the cells for the assay period in 5% CO2, 95% air, and 95% humidity. […]

Experiment [2] relates to polymorphonuclear leukocyte migration. The experiment in a line: Chemotaxis of polymorphonuclear leukocytes (trans-well, zymosan-activated human serum). The experiment is classed as cell-based. Conditions: for inhibition of chemotaxis migration (in words): 10^-4 -10^-5 M. The procedure:
The materials and methods for ascertaining the chemotactic inhibitory properties of peptides are generally known in the art, and the preferred procedure is described by Capsoni, et al., 1989, J. of Immunol. Meth., 120:125. Generally, chemotaxis is determined by positioning the leukocytes and a chemotactic substance on opposite sides of a membrane in appropriate culture media. The preferred apparatus for doing a chemotaxis assay is produced by Costar Corporation, Cambridge, Mass., and is termed the trans-well cell culture apparatus. […] If a substance is being tested for inhibitory activity this can be achieved by combining it with the leukocytes or the chemotactic substance.
The procedure of Capsoni, et al., above, was followed with the following modifications. Leukocytes may be isolated and labelled with ^111 Indium as described for the adhesion assay, above. The cells are resuspended after labelling in an appropriate cell culture medium at about 5×10^6 cells/ml. Next, a desired amount of the cell suspension is mixed with a predetermined amount of the peptide(s) to be tested for inhibitory activity, and the mixture added to an appropriate filter device. Three μm-pore membranes are situated in the wells of a 24 trans-well tissue culture plate. The cell/inhibitory peptide mixture is incubated for a short time at 37° C. to acclimate the cells to the membrane surface, and to provide sufficient time for them to settle onto the membrane surface. Next, inserts are set in wells containing cell culture media. The media contains zymosan-activated human serum at about 0.5%. Zymosan activation generates complement-derived chemotactic factors which attract the leukocytes through the pores of the membrane. This media was also prewarmed for an appropriate time prior to addition to the cell culture wells. After a 30 minute incubation period at 37° C., the number of leukocytes that have migrated through the membrane filter, in the presence or absence of CD18 peptides, is readily determined by counting the amount of ^111 Indium present in the media. This may be facilitated by adding an appropriate detergent at an appropriate concentration to the media in the wells prior to removing an aliquot for counting. In this way, the inhibitory activities of the peptide being tested could be determined.
Many of the materials and methods used to test the inhibitory activity of the CD18 peptides on the chemotactic response of the polymorphonuclear leukocytes are similar or identical to those used to perform the adhesion assays described in Example 1. Polymorphonuclear leukocytes were isolated and labelled with ^111 Indium as described before, and the cells were suspended in RPMI 1640 culture medium at a concentration of 5×10^6 /ml. Next, 75 μl of the cell suspension and 25 μl of media containing a desired concentration of a CD18 peptide were added to trans-well inserts, and the mixture was incubated at 37° C. for 10 minutes.
To the bottom wells of the 24-well plate 0.6 ml of media containing 0.5% zymosan-activated human serum was added. This solution was also warmed to 37° C. for 10 minutes prior to use.
Next, the assay was conducted by incubating the trans-well inserts containing the cell suspension with the desired CD18 peptide in the 24-well plates at 37° C. for 30 minutes. Subsequently, the inserts were removed, and 60 μl of a 10% sodium dodecyl sulphate solution was added to the wells of the 24-well plate. The plates were incubated with gentle shaking at room temperature for 15 minutes, and 110 μl aliquots were removed and the amount of ^111 Indium determined using a gamma-counter.

“FDYPSVGQLAHKLAENNIQPIFAVT [Peptide 2-24, NH2 --Phe--Asp--Tyr--Pro--Ser--Val--Gly--Gln--Leu--Ala--His--Lys--Leu--Ala--Glu--Asn--Asn--Ile--Gln--Pro--Ile--Phe--Ala--Val--Thr--COOH]”: the “activity on PMN adhesion at 10^-4 M (in words)” value (“activity on PMN adhesion” below) in experiment [1] (10^-4 M) is reported as “show activity”. In addition, the figures for the “Average % Change of PMN Adhesion to TNF Activated ECs” value (“Average % Change of PMN Adhesion” below) in experiment [1] (10^-4 M), in experiment [1] (10^-6 M) and in experiment [1] (10^-8 M) were -79%, -10% and -2%, respectively. In addition, in experiment [2], the “inhibition of chemotaxis migration (in words)” value is listed as “marked inhibition”. The “percent inhibition (-) or enhancement of polymorphonuclear leukocyte migration” value (from here on “percent inhibition (-) or enhancement”) in experiment [2] (10^-4 M, donor 195) is reported as -48%; in experiment [2] (10^-4 M, donor 499), -77%; in experiment [2] (10^-4 M, donor 591) it was -73%; in experiment [2] (10^-4 M, donor 593), -89%; in experiment [2] (10^-5 M, donor 195) it was -33%; in experiment [2] (10^-5 M, donor 499), -33%. The “percent inhibition (-) or enhancement” value in experiment [2] (10^-5 M, donor 591) is given as -9%; in experiment [2] (10^-5 M, donor 593), -40%; in experiment [2] (10^-6 M, donor 195), 22%; in experiment [2] (10^-6 M, donor 499), 0%; in experiment [2] (10^-6 M, donor 591) it was -17%; in experiment [2] (10^-6 M, donor 593), -22%.
Take “IPKSAVGELSEDSSNVVHLIKNAYNKLSS [Peptide 3-29, NH2 --Ile--Pro--Lys--Ser--Ala--Val--Gly--Glu--Leu--Ser--Glu--Asp--Ser--Ser--Asn--Val--Val--His--Leu--Ile--Lys--Asn--Ala--Tyr--Asn--Lys--Leu--Ser--Ser--COOH]”: the “activity on PMN adhesion” value in experiment [1] (10^-4 M) is listed as “show activity”. Also, the “Average % Change of PMN Adhesion” value in experiment [1] (10^-4 M) is reported as -58%; in experiment [1] (10^-5 M), “+12%”; in experiment [1] (10^-6 M), -5%; in experiment [1] (10^-7 M) it was “+27%”; in experiment [1] (10^-8 M), -2%. Moreover, the “inhibition of chemotaxis migration (in words)” value in experiment [2] is “marked inhibition”. In addition, the “percent inhibition (-) or enhancement” value is recorded as -7% in experiment [2] (10^-4 M, donor 195); -33% in experiment [2] (10^-4 M, donor 499); -57% in experiment [2] (10^-4 M, donor 591); -85% in experiment [2] (10^-4 M, donor 593); 11% in experiment [2] (10^-5 M, donor 195); 23% in experiment [2] (10^-5 M, donor 499). Besides, the “percent inhibition (-) or enhancement” value in experiment [2] (10^-5 M, donor 591) was -6%; in experiment [2] (10^-5 M, donor 593) it was -17%; in experiment [2] (10^-6 M, donor 195), -26%; in experiment [2] (10^-6 M, donor 499), -10%; in experiment [2] (10^-6 M, donor 591) it was 11%; in experiment [2] (10^-6 M, donor 593), -6%.
Consider “RIARLKEKVKTLKAKNSELASTANMLREQVAQLKQKVMNHA [JUN-k, NH2 --Arg--Ile--Ala--Arg--Leu--Lys--Glu--Lys--Val--Lys--Thr--Leu--Lys--Ala--Lys--Asn--Ser--Glu--Leu--Ala--Ser--Thr--Ala--Asn--Met--Leu--Arg--Glu--Gln--Val--Ala--Gln--Leu--Lys--Gln--Lys--Val--Met--Asn--His--Ala--COOH, reference compound]”, for which the “activity on PMN adhesion” value in experiment [1] (10^-4 M) is “inhibited polymorphonuclear leukocyte adhesion”. The “Average % Change of PMN Adhesion” value in experiment [1] (10^-4 M) is -25%; in experiment [1] (10^-5 M), -15%; in experiment [1] (10^-6 M), “+3%”; in experiment [1] (10^-7 M) it was -7%.
As to “SSNVVHLIKNAYNKLSS [Peptide 3-17, NH2 --Ser--Ser--Asn--Val--Val--His--Leu--Ile--Lys--Asn--Ala--Tyr--Asn--Lys--Leu--Ser--Ser--COOH]”, the “Average % Change of PMN Adhesion” value in experiment [1] (10^-4 M) is reported as -13%; in experiment [1] (10^-5 M), “+43%”; in experiment [1] (10^-6 M) it was “+13%”; in experiment [1] (10^-7 M) it was -18%; in experiment [1] (10^-8 M), -7%.
As to “SYSMLDDLRNVKKLG [Peptide 1-15, NH2 --Ser--Tyr--Ser--Met--Leu--Asp--Asp--Leu--Arg--Asn--Val--Lys--Lys--Leu--Gly--COOH]”, the “Average % Change of PMN Adhesion” value in experiment [1] (10^-4 M) is reported as -24%; in experiment [1] (10^-6 M), -9%; in experiment [1] (10^-8 M), -4%.
